# Measurements from ChEMBL document CHEMBL4308841, “Synthesis, in vitro antiproliferative activity, and kinase inhibitory effects of pyrazole-containing diarylureas and diarylamides” (Eur J Med Chem, 2018).
# Tests used:
# [1] = test system: NCI-H522; experiment: Growth inhibition of human NCI-H522 cells assessed as cell growth at 10 uM incubated for 48 hrs by sulforhodamine B assay relative to control; type: functional; conditions: NCI-H522, 48 h, read-out: Activity
# [2] = test system: NCI-H460; experiment: Growth inhibition of human NCI-H460 cells incubated for 48 hrs by sulforhodamine B assay; type: functional, cell-based; conditions: NCI-H460, 48 h
# [3] = test system: SNB-19; experiment: Growth inhibition of human SNB19 cells incubated for 48 hrs by sulforhodamine B assay; type: functional, cell-based; conditions: SNB-19, 48 h
# [4] = test system: OVCAR-3; experiment: Growth inhibition of human OVCAR3 cells incubated for 48 hrs by sulforhodamine B assay; type: functional, cell-based; conditions: OVCAR-3, 48 h
# [5] = test system: OVCAR-4; experiment: Growth inhibition of human OVCAR4 cells incubated for 48 hrs by sulforhodamine B assay; type: functional, cell-based; conditions: OVCAR-4, 48 h
# [6] = test system: SK-OV-3; experiment: Growth inhibition of human SKOV3 cells incubated for 48 hrs by sulforhodamine B assay; type: functional, cell-based; conditions: SK-OV-3, 48 h
# [7] = test system: RXF 393; experiment: Growth inhibition of human RXF393 cells incubated for 48 hrs by sulforhodamine B assay; type: functional, cell-based; conditions: RXF 393, 48 h
# [8] = test system: DU-145; experiment: Growth inhibition of human DU145 cells incubated for 48 hrs by sulforhodamine B assay; type: functional, cell-based; conditions: DU-145, 48 h
# [9] = test system: KM12; experiment: Growth inhibition of human KM12 cells assessed as cell growth at 0.01 uM incubated for 48 hrs by sulforhodamine B assay relative to control; type: functional; conditions: KM12, 48 h, read-out: Activity
# [10] = test system: SW-620; experiment: Growth inhibition of human SW620 cells assessed as cell growth at 0.01 uM incubated for 48 hrs by sulforhodamine B assay relative to control; type: functional; conditions: SW-620, 48 h, read-out: Activity
# [11] = test system: SF-268; experiment: Growth inhibition of human SF268 cells assessed as cell growth at 0.01 uM incubated for 48 hrs by sulforhodamine B assay relative to control; type: functional; conditions: SF-268, 48 h, read-out: Activity
# [12] = test system: SF-295; experiment: Growth inhibition of human SF295 cells assessed as cell growth at 0.01 uM incubated for 48 hrs by sulforhodamine B assay relative to control; type: functional; conditions: SF-295, 48 h, read-out: Activity
# [13] = test system: M14; experiment: Growth inhibition of human M14 cells assessed as cell growth at 0.01 uM incubated for 48 hrs by sulforhodamine B assay relative to control; type: functional; conditions: M14, 48 h, read-out: Activity
# [14] = test system: K562; experiment: Growth inhibition of human K562 cells assessed as cell growth at 0.1 uM incubated for 48 hrs by sulforhodamine B assay relative to control; type: functional; conditions: K562, 48 h, read-out: Activity
# [15] = test system: KM12; experiment: Growth inhibition of human KM12 cells assessed as cell growth at 0.1 uM incubated for 48 hrs by sulforhodamine B assay relative to control; type: functional; conditions: KM12, 48 h, read-out: Activity
# [16] = test system: SF-539; experiment: Growth inhibition of human SF539 cells assessed as cell growth at 0.1 uM incubated for 48 hrs by sulforhodamine B assay relative to control; type: functional; conditions: SF-539, 48 h, read-out: Activity
# [17] = test system: SNB-75; experiment: Growth inhibition of human SNB75 cells assessed as cell growth at 0.1 uM incubated for 48 hrs by sulforhodamine B assay relative to control; type: functional; conditions: SNB-75, 48 h, read-out: Activity
# [18] = test system: OVCAR-8; experiment: Growth inhibition of human OVCAR8 cells assessed as cell growth at 0.1 uM incubated for 48 hrs by sulforhodamine B assay relative to control; type: functional; conditions: OVCAR-8, 48 h, read-out: Activity
# [19] = test system: DU-145; experiment: Growth inhibition of human DU145 cells assessed as cell growth at 0.1 uM incubated for 48 hrs by sulforhodamine B assay relative to control; type: functional; conditions: DU-145, 48 h, read-out: Activity
# [20] = test system: MDA-MB-468; experiment: Growth inhibition of human MDA-MB-468 cells assessed as cell growth at 0.1 uM incubated for 48 hrs by sulforhodamine B assay relative to control; type: functional; conditions: MDA-MB-468, 48 h, read-out: Activity
# [21] = test system: NCI-H23; experiment: Growth inhibition of human NCI-H23 cells assessed as cell growth at 1 uM incubated for 48 hrs by sulforhodamine B assay relative to control; type: functional; conditions: NCI-H23, 48 h, read-out: Activity
# [22] = test system: COLO 205; experiment: Growth inhibition of human COLO205 cells assessed as cell growth at 1 uM incubated for 48 hrs by sulforhodamine B assay relative to control; type: functional; conditions: COLO 205, 48 h, read-out: Activity
# [23] = test system: HT-29; experiment: Growth inhibition of human HT-29 cells assessed as cell growth at 1 uM incubated for 48 hrs by sulforhodamine B assay relative to control; type: functional; conditions: HT-29, 48 h, read-out: Activity
# [24] = test system: PC-3; experiment: Growth inhibition of human PC3 cells assessed as cell growth at 1 uM incubated for 48 hrs by sulforhodamine B assay relative to control; type: functional; conditions: PC-3, 48 h, read-out: Activity
# [25] = test system: BT-549; experiment: Growth inhibition of human BT549 cells assessed as cell growth at 1 uM incubated for 48 hrs by sulforhodamine B assay relative to control; type: functional; conditions: BT-549, 48 h, read-out: Activity
# [26] = test system: RPMI-8226; experiment: Growth inhibition of human RPMI8226 cells assessed as cell growth at 100 uM incubated for 48 hrs by sulforhodamine B assay relative to control; type: functional; conditions: RPMI-8226, 48 h, read-out: Activity
# [27] = test system: SK-MEL-28; experiment: Growth inhibition of human SK-MEL-28 cells assessed as cell growth at 100 uM incubated for 48 hrs by sulforhodamine B assay relative to control; type: functional; conditions: SK-MEL-28, 48 h, read-out: Activity
# [28] = test system: CAKI-1; experiment: Growth inhibition of human Caki1 cells assessed as cell growth at 100 uM incubated for 48 hrs by sulforhodamine B assay relative to control; type: functional; conditions: CAKI-1, 48 h, read-out: Activity
# [29] = read-out: pLC50 (the source's name) (converted)
# [30] = read-out: LC50 (the source's name)
smiles,measurement,setting,value
COc1cc(Cl)cc(-c2nn(-c3cccc(NC(=O)Nc4cc(C(F)(F)F)cc(C(F)(F)F)c4)c3)cc2-c2ccncc2)c1,growth at 10 µM,[1],-15.6%
same,IC50,[2],0.38 µM
same,GI50,[2]; read-out: GI50,0.377 µM
same,TGI,[2]; read-out: TGI,1.76 µM
same,GI50,[2]; read-out: pGI50 (converted),0.38 µM
same,CC50,[2]; [29],17.4 µM
same,TGI,[2]; read-out: pTGI (converted),1.78 µM
same,IC50,[3],0.42 µM
same,GI50,[3]; read-out: GI50,0.42 µM
same,CC50,[3]; [30],> 100 µM
same,TGI,[3]; read-out: TGI,11.3 µM
same,GI50,[3]; read-out: pGI50 (converted),0.417 µM
same,CC50,[3]; [29],> 100 µM
same,TGI,[3]; read-out: pTGI (converted),11.2 µM
same,IC50,[4],0.33 µM
same,GI50,[4]; read-out: GI50,0.334 µM
same,TGI,[4]; read-out: TGI,1.41 µM
same,GI50,[4]; read-out: pGI50 (converted),0.331 µM
same,CC50,[4]; [29],34.7 µM
same,TGI,[4]; read-out: pTGI (converted),1.41 µM
same,IC50,[5],0.5 µM
same,GI50,[5]; read-out: GI50,0.501 µM
same,CC50,[5]; [30],> 100 µM
same,TGI,[5]; read-out: TGI,21.4 µM
same,GI50,[5]; read-out: pGI50 (converted),0.501 µM
same,CC50,[5]; [29],> 100 µM
same,TGI,[5]; read-out: pTGI (converted),26.9 µM
same,IC50,[6],0.77 µM
same,GI50,[6]; read-out: GI50,0.77 µM
same,CC50,[6]; [30],0.0412 µM
same,TGI,[6]; read-out: TGI,5.75 µM
same,GI50,[6]; read-out: pGI50 (converted),0.776 µM
same,CC50,[6]; [29],41.7 µM
same,TGI,[6]; read-out: pTGI (converted),5.75 µM
same,IC50,[7],1.26 µM
same,LC50,[7],14.8 µM
same,TGI,[7]; read-out: TGI,3.92 µM
same,GI50,[7]; read-out: pGI50 (converted),1.26 µM
same,TGI,[7]; read-out: pTGI (converted),3.89 µM
same,IC50,[8],0.47 µM
same,GI50,[8]; read-out: GI50,0.459 µM
same,TGI,[8]; read-out: TGI,10.6 µM
same,GI50,[8]; read-out: pGI50 (converted),0.468 µM
same,CC50,[8]; [29],38.9 µM
same,TGI,[8]; read-out: pTGI (converted),10.7 µM
same,growth at 0.01 µM,[9],97%
same,growth at 0.01 µM,[10],98%
same,growth at 0.01 µM,[11],97%
same,growth at 0.01 µM,[12],95%
same,growth at 0.01 µM,[13],96%
same,growth at 0.1 µM,[14],91%
same,growth at 0.1 µM,[15],98%
same,growth at 0.1 µM,[16],102%
same,growth at 0.1 µM,[17],74%
same,growth at 0.1 µM,[18],105%
same,growth at 0.1 µM,[19],95%
same,growth at 0.1 µM,[20],89%
same,growth at 1 µM,[21],8%
same,growth at 1 µM,[22],24%
same,growth at 1 µM,[23],23%
same,growth at 1 µM,[24],5%
same,growth at 1 µM,[25],54%
same,growth at 100 µM,[26],-8%
same,growth at 100 µM,[27],-58%
same,growth at 100 µM,[28],-61%
COc1cc(Cl)cc(-c2nn(-c3cccc(NC(=O)Nc4ccc(Cl)c(C(F)(F)F)c4)c3)cc2-c2ccncc2)c1,growth at 10 µM,[1],-10.4%
same,GI50,[2]; read-out: GI50,0.77 µM
same,CC50,[2]; [30],4.48 µM
same,TGI,[2]; read-out: TGI,40 µM
same,CC50,[2]; [29],44.7 µM
same,GI50,[3]; read-out: GI50,2.93 µM
same,CC50,[3]; [30],> 100 µM
same,TGI,[3]; read-out: TGI,17.5 µM
same,GI50,[3]; read-out: pGI50 (converted),1.17 µM
same,CC50,[3]; [29],> 100 µM
same,TGI,[3]; read-out: pTGI (converted),17.8 µM
same,IC50,[4],0.45 µM
same,GI50,[4]; read-out: GI50,0.451 µM
same,CC50,[4]; [30],54.6 µM
same,TGI,[4]; read-out: TGI,25.5 µM
same,GI50,[4]; read-out: pGI50 (converted),4.47 µM
same,CC50,[4]; [29],55 µM
same,TGI,[4]; read-out: pTGI (converted),28.8 µM
same,GI50,[5]; read-out: GI50,1.53 µM
same,CC50,[5]; [30],> 100 µM
same,TGI,[5]; read-out: TGI,25.5 µM
same,GI50,[5]; read-out: pGI50 (converted),1.82 µM
same,CC50,[5]; [29],> 100 µM
same,TGI,[5]; read-out: pTGI (converted),2.63 µM
same,GI50,[6]; read-out: GI50,3.15 µM
same,CC50,[6]; [30],> 100 µM
same,TGI,[6]; read-out: TGI,95.5 µM
same,GI50,[6]; read-out: pGI50 (converted),3.16 µM
same,CC50,[6]; [29],> 100 µM
same,TGI,[6]; read-out: pTGI (converted),11.7 µM
same,LC50,[7],28.2 µM
same,GI50,[7]; read-out: GI50,1.71 µM
same,TGI,[7]; read-out: TGI,44.2 µM
same,GI50,[7]; read-out: pGI50 (converted),1.7 µM
same,TGI,[7]; read-out: pTGI (converted),9.33 µM
same,GI50,[8]; read-out: GI50,1.55 µM
same,CC50,[8]; [30],55.2 µM
same,TGI,[8]; read-out: TGI,14 µM
same,GI50,[8]; read-out: pGI50 (converted),1.86 µM
same,CC50,[8]; [29],56.2 µM
same,TGI,[8]; read-out: pTGI (converted),14.1 µM
same,growth at 0.01 µM,[9],95%
same,growth at 0.01 µM,[10],98%
same,growth at 0.01 µM,[11],95%
same,growth at 0.01 µM,[12],59%
same,growth at 0.01 µM,[13],97%
same,growth at 0.1 µM,[14],91%
same,growth at 0.1 µM,[15],98%
same,growth at 0.1 µM,[16],91%
same,growth at 0.1 µM,[17],52%
same,growth at 0.1 µM,[18],96%
same,growth at 0.1 µM,[19],98%
same,growth at 0.1 µM,[20],91%
same,growth at 1 µM,[21],60%
same,growth at 1 µM,[22],80%
same,growth at 1 µM,[23],55%
same,growth at 1 µM,[24],14%
same,growth at 1 µM,[25],92%
same,growth at 100 µM,[26],-32%
same,growth at 100 µM,[27],-88%
same,growth at 100 µM,[28],-40%
